# Results as given in US20110070232A1, “Combination Therapy with an Antitumor Alkaloid” (Pharma Mar, S.A., priority 2008, published 2011).
# Like-named read-outs stand apart in the source and are kept apart here.
# Legend:
# MRI-H-254 tumors = format: in vivo, mice; conditions: for % T/C on day 20 / % T/C on day 23 / % T/C on day 26 / % T/C on day 30 / % T/C on day 34 / % T/C on day 36 / % T/C on day 43 / % T/C on day 49 / % T/C on day 56 / % T/C on day 63: PM00104 0.90 IV, DPI 20, 27, 34
# Method: Female athymic nude mice (Harlan Sprague Dawley, Madison, Wis.) were utilized for all experiments. Animals were housed in ventilated rack caging with food and water ad libitum. The mice were acclimated for at least 5 days prior to tumor implantation with tumor fragments.
# Bacterial culture was taken on cells used to implant the study.
# Treatments were initiated on DPI 20.
# 5-FU was provided in the form of injection vials which was diluted with 0.9% sterile Saline.
# Tumor size measurements were recorded twice weekly from the treatment initiation until the termination of the study.
# Mean, standard deviation and standard error of the mean were determined for tumor volume for all animal groups at all assessments. Student's t test was performed on tumor volumes at each measurement day, including at the end of the study, to determine whether there were any statistically significant differences between combination treatment groups and single monotherapy treatment groups.
# [1] = test system: HCT-116 (colon cancer) cell line; assay: IC50 determination, MIT (tetrazolium) assay, 72 h (Example 18); format: cell-based, human; conditions: Homo sapiens; HCT-116, 72 hours of drug exposure
# Method: HCT-116 cells were grown in McCoy's supplemented with 10% Fetal Bovine Serum (FBS), 1% penicillin/streptomycin and 2 mM L-glutamine.
# Before plating, cell cultures were trypsinized and cell number estimated using an automated flow cytometer.
# Cells were harvested and seeded in 96 well microtiter plates at the appropriate cell density (5,000-10,000 cells) in 150 μL of media and incubated for 24 hours to allow the cells to attach before drug addition.
# After the incubation period (72 hours), 50 μL of MIT solution was added to each microtiter well and incubated for further 8 hours at 37° C. The culture medium was then removed and 50 μl, of DMSO were added to dissolve the MIT crystals. Optical densities were read at 540 nm on spectrophotometer microplate reader.
# IC50 values were calculated from an average of two to four assays for each of the test agents.
# [2] = 5-FU 100 IP mg/kg/day (G2, G3, G5)
compound,measurement,setting,value
"O=c1[nH]cc(F)c(=O)[nH]1 [5-FU, 5-fluorouracil]",% T/C on day 20,"MRI-H-254 tumors; 5-FU 50 IP mg/kg/day (G4, G6)",96.0%
same,% T/C on day 23,"MRI-H-254 tumors; 5-FU 50 IP mg/kg/day (G4, G6)",52.3%
same,% T/C on day 26,"MRI-H-254 tumors; 5-FU 50 IP mg/kg/day (G4, G6)",47.9%
same,% T/C on day 30,"MRI-H-254 tumors; 5-FU 50 IP mg/kg/day (G4, G6)",55.3%
same,% T/C on day 34,"MRI-H-254 tumors; 5-FU 50 IP mg/kg/day (G4, G6)",45.0%
same,% T/C on day 36,"MRI-H-254 tumors; 5-FU 50 IP mg/kg/day (G4, G6)",45.7%
same,% T/C on day 43,"MRI-H-254 tumors; 5-FU 50 IP mg/kg/day (G4, G6)",58.1%
same,% T/C on day 49,"MRI-H-254 tumors; 5-FU 50 IP mg/kg/day (G4, G6)",100.0%
same,% T/C on day 56,"MRI-H-254 tumors; 5-FU 50 IP mg/kg/day (G4, G6)",117.6%
same,% T/C on day 63,"MRI-H-254 tumors; 5-FU 50 IP mg/kg/day (G4, G6)",123.9%
same,% T/C on day 20,MRI-H-254 tumors; [2],101.8%
same,% T/C on day 23,MRI-H-254 tumors; [2],55.2%
same,% T/C on day 26,MRI-H-254 tumors; [2],47.1%
same,% T/C on day 30,MRI-H-254 tumors; [2],36.3%
same,% T/C on day 34,MRI-H-254 tumors; [2],31.6%
same,% T/C on day 36,MRI-H-254 tumors; [2],23.0%
same,% T/C on day 43,MRI-H-254 tumors; [2],30.9%
same,% T/C on day 49,MRI-H-254 tumors; [2],54.6%
same,% T/C on day 56,MRI-H-254 tumors; [2],96.3%
same,% T/C on day 63,MRI-H-254 tumors; [2],107.8%
same,% Inhibition,"MRI-H-254 tumors; day 20, PM00104 0.9 and 5-FU 50 mg/kg/day",4.0%
same,% Inhibition,"MRI-H-254 tumors; day 20, PM00104 0.9 and 5-FU 100 mg/kg/day",−1.8%
same,% Inhibition,"MRI-H-254 tumors; day 23, PM00104 0.9 and 5-FU 50 mg/kg/day",47.7%
same,% Inhibition,"MRI-H-254 tumors; day 23, PM00104 0.9 and 5-FU 100 mg/kg/day",44.8%
same,% Inhibition,"MRI-H-254 tumors; day 26, PM00104 0.9 and 5-FU 50 mg/kg/day",52.1%
same,% Inhibition,"MRI-H-254 tumors; day 26, PM00104 0.9 and 5-FU 100 mg/kg/day",52.9%
same,% Inhibition,"MRI-H-254 tumors; day 30, PM00104 0.9 and 5-FU 50 mg/kg/day",44.7%
same,% Inhibition,"MRI-H-254 tumors; day 30, PM00104 0.9 and 5-FU 100 mg/kg/day",63.7%
same,% Inhibition,"MRI-H-254 tumors; day 34, PM00104 0.9 and 5-FU 50 mg/kg/day",55.0%
same,% Inhibition,"MRI-H-254 tumors; day 34, PM00104 0.9 and 5-FU 100 mg/kg/day",68.4%
same,% Inhibition,"MRI-H-254 tumors; day 36, PM00104 0.9 and 5-FU 50 mg/kg/day",54.3%
same,% Inhibition,"MRI-H-254 tumors; day 36, PM00104 0.9 and 5-FU 100 mg/kg/day",77.0%
same,% Inhibition,"MRI-H-254 tumors; day 43, PM00104 0.9 and 5-FU 50 mg/kg/day",41.9%
same,% Inhibition,"MRI-H-254 tumors; day 43, PM00104 0.9 and 5-FU 100 mg/kg/day",69.1%
same,% Inhibition,"MRI-H-254 tumors; day 49, PM00104 0.9 and 5-FU 50 mg/kg/day",0.0%
same,% Inhibition,"MRI-H-254 tumors; day 49, PM00104 0.9 and 5-FU 100 mg/kg/day",45.4%
same,% Inhibition,"MRI-H-254 tumors; day 56, PM00104 0.9 and 5-FU 50 mg/kg/day",−17.6%
same,% Inhibition,"MRI-H-254 tumors; day 56, PM00104 0.9 and 5-FU 100 mg/kg/day",3.7%
same,% Inhibition,"MRI-H-254 tumors; day 63, PM00104 0.9 and 5-FU 50 mg/kg/day",−23.9%
same,% Inhibition,"MRI-H-254 tumors; day 63, PM00104 0.9 and 5-FU 100 mg/kg/day",−7.8%
same,IC50,[1],6 µM
